From article PMC8953592, “Mechanism of Action and Therapeutic Potential of the β-Hairpin Antimicrobial Peptide Capitellacin from the Marine Polychaeta Capitella teleta” (Marine Drugs, 2022)
Positions of bridges follow the written chain, without caps; N, C: chain ends. Residues, ends and D or L forms follow the SMILES beside them.

What was measured:
E. coli ML-35p [1] = test system: E. coli ML-35p; set-up: method as in 2 sources, one per row (each row's own in cited_ref): ref 4, 19, 27 = [4]; PMID 33291782; doi:10.3390/md18120620; 4. Panteleev P.V. Tsarev A.V. Safronova V.N. Reznikova O.V. Bolosov I.A. Sychev S.V. Shenkarev Z.O. Ovchinnikova T.V. Structure Elucidation and Functional Studies of a Novel β-Hairpin Antimicrobial Pe || [19]; PMID 26814379; doi:10.1002/psc.2843; 19. Panteleev P.V. Bolosov I.A. Ovchinnikova T.V. Bioengineering and Functional Characterization of Arenicin Shortened Analogs with Enhanced Antibacterial Activity and Cell Selectivity J. Pept. Sci. 2 || [27]; PMID 25558400; doi:10.32607/20758251-2014-6-4-99-109; 27. Shamova O.V. Orlov D.S. Balandin S.V. Shramova E.I. Tsvetkova E.V. Panteleev P.V. Leonova Y.F. Tagaev A.A. Kokryakov V.N. Ovchinnikova T.V. Acipensins—Novel Antimicrobial Peptides from Leukocytes ||| ref 4 = [4]; PMID 33291782; doi:10.3390/md18120620; 4. Panteleev P.V. Tsarev A.V. Safronova V.N. Reznikova O.V. Bolosov I.A. Sychev S.V. Shenkarev Z.O. Ovchinnikova T.V. Structure Elucidation and Functional Studies of a Novel β-Hairpin Antimicrobial Pe; conditions: at a concentration several-fold higher than MIC; cited from earlier work
E. coli MDR CI 1057 = format: cell-based
E. coli CI 214 = conditions: CI 214, 24 h
Gram-positive bacteria = conditions: Gram-positive test strains
E. coli CI 3600 = conditions: CI 3600, 24 h
[2] = test system: Micrococcus luteus B-1314; conditions: B-1314, 24 h
K. pneumonia ATCC 700603 = conditions: ATCC 700603, 24 h
[3] = test system: Staphylococcus aureus 209P; conditions: 24 h
human red blood cells = assay: Hemolytic assay (hemoglobin release); conditions: human erythrocytes
Procedure: To examine the ability of the peptides to permeabilize cytoplasmic membranes of bacterial and mammalian cells, the ONPG test and hemolysis assay were used, respectively. […] The hemolytic activity of AMPs against a suspension of human erythrocytes was determined by the method of double serial dilution in buffered saline followed by incubation for 1.5 h (Figure 2A). […] Next, we used ONPG assay to estimate E. coli inner membrane permeabilization by the peptides.
The hemolytic activity of compounds was performed using human red blood cells (hRBS), in accordance with the previously described approach. Briefly, hRBS of a healthy donor were separated from fresh blood and washed 3 times with ice-cold phosphate-buffered saline (PBS pH 7.4) and centrifuged at 500× g for 10 min; additionally, citrate buffer was added to prevent clotting. Further, supernatant was discarded and erythrocyte suspension was prepared in PBS as 8% (v/v) solution. The test was carried out in the 96-well plate, taking into account two-fold serial dilutions of studied peptides. […] Then the plate was centrifuged at 1000× g for 15 min for the precipitation of erythrocyte. The amount of hemoglobin release was determined by absorption spectroscopy at 405 nm. Triton X-100 (0.1% v/v) was used as a positive control, which underwent a complete lysis of erythrocytes, and PBS working solution was used as a negative control. The percentage hemolysis was calculated by the following formula: Hemolysis (%)=OD405(compound)− OD405 (zero lysis)/OD405(100 % lysis)− OD405 (zero lysis)×100%
The assays were conducted three times. The quantitative data were presented as an average means with standard deviations.

E. cloacae CI 4172 = conditions: CI 4172, 24 h
E. coli ML-35p [4] = conditions: 24 h
P. aeruginosa PAO1 = conditions: PAO1, 24 h
E. coli ATTC 25922 = conditions: ATTC 25922, 24 h
Gram-negative bacteria = conditions: Gram-negative test strains
Bacillus subtilis B-886 = conditions: B-886, 24 h
A. baumanii CI 2675 = conditions: 24 h

protegrin-1
membrane permeabilization after 60 min (E. coli ML-35p [1]): almost full membrane permeabilization

polymyxin B
Initial MIC value (E. coli MDR CI 1057; E. coli MDR CI 1057, Mueller–Hinton medium containing added NaCl, before passages): 0.125 µM | increase in MIC value after 9 passages (E. coli MDR CI 1057; E. coli MDR CI 1057, after just 9 passages): 64 fold

CC[C@H](C)[C@@H]1NC(=O)[C@@H](NC(=O)[C@@H](NC(=O)[C@@H](N)CCCNC(=N)N)C(C)C)CSSC[C@@H](C(=O)N[C@@H](Cc2c[nH]c3ccccc23)C(=O)O)NC(=O)[C@H](CCCNC(=N)N)NC(=O)[C@H](CCCNC(=N)N)NC(=O)[C@H](Cc2ccc(O)cc2)NC(=O)[C@@H]2CSSC[C@H](NC(=O)[C@H](C(C)C)NC(=O)[C@H](CCCNC(=N)N)NC1=O)C(=O)N[C@@H](Cc1ccc(O)cc1)C(=O)N[C@@H](CCCNC(=N)N)C(=O)NCC(=O)N[C@@H](C(C)C)C(=O)N2 [CT7] (H-RVCIRVCYRGVCYRRCW-OH; disulfide 3-16, 7-12)
Minimum Inhibitory Concentration (E. coli CI 214): 0.25 µM | Geometric mean (GM) of the peptide MICs (Gram-positive bacteria): 2 µM | Minimum Inhibitory Concentration (E. coli CI 3600): 0.25 µM | Minimum Inhibitory Concentration [2]: 1 µM | Minimum Inhibitory Concentration (K. pneumonia ATCC 700603): 4 µM | Minimum Inhibitory Concentration [3]: 2 µM | maximum level of lysis (hemolysis) (human red blood cells; 128 μM peptide, 1.5 h incubation, PBS, 37 °C, absorbance 405 nm, Triton X-100 = 100%): ~50% | Minimum Inhibitory Concentration (E. cloacae CI 4172): 2 µM | Minimum Inhibitory Concentration (E. coli ML-35p [4]): 0.5 µM | Minimum Inhibitory Concentration (P. aeruginosa PAO1): 1 µM | Minimum Inhibitory Concentration (E. coli ATTC 25922): 0.25 µM | Geometric mean (GM) of the peptide MICs (Gram-negative bacteria): 0.55 µM | Minimum Inhibitory Concentration (Bacillus subtilis B-886): 4 µM | Minimum Inhibitory Concentration (A. baumanii CI 2675): 0.125 µM

CC[C@H](C)[C@@H]1NC(=O)[C@@H](NC(=O)[C@H](Cc2c[nH]c3ccccc23)NC(=O)[C@@H](N)CCCCN)CSSC[C@@H](C(=O)N[C@@H](CCCNC(=N)N)C(=O)O)NC(=O)[C@H](CCCNC(=N)N)NC(=O)[C@H](CCCNC(=N)N)NC(=O)[C@H](Cc2ccc(O)cc2)NC(=O)[C@@H]2CSSC[C@H](NC(=O)[C@H](C(C)C)NC(=O)[C@H](CCCNC(=N)N)NC1=O)C(=O)N[C@@H](CCCNC(=N)N)C(=O)N[C@@H](CC(N)=O)C(=O)NCC(=O)N[C@@H](C(C)C)C(=O)N2 [CT5]
Minimum Inhibitory Concentration (E. coli CI 214): 0.5 µM | Geometric mean (GM) of the peptide MICs (Gram-positive bacteria): 12.7 µM | Minimum Inhibitory Concentration (E. coli CI 3600): 0.5 µM | Minimum Inhibitory Concentration [2]: 8 µM | Minimum Inhibitory Concentration (K. pneumonia ATCC 700603): 4 µM | Minimum Inhibitory Concentration [3]: 8 µM | Minimum Inhibitory Concentration (E. cloacae CI 4172): 4 µM | Minimum Inhibitory Concentration (E. coli ML-35p [4]): 0.5 µM | Minimum Inhibitory Concentration (P. aeruginosa PAO1): 4 µM | Minimum Inhibitory Concentration (E. coli ATTC 25922): 0.5 µM | Geometric mean (GM) of the peptide MICs (Gram-negative bacteria): 1.09 µM | Minimum Inhibitory Concentration (Bacillus subtilis B-886): 32 µM | Minimum Inhibitory Concentration (A. baumanii CI 2675): 0.5 µM

CC[C@H](C)[C@@H]1NC(=O)[C@@H](NC(=O)[C@@H](NC(=O)[C@@H](N)CCCNC(=N)N)C(C)C)CSSC[C@@H](C(=O)N[C@@H](Cc2c[nH]c3ccccc23)C(=O)O)NC(=O)[C@H](CCCNC(=N)N)NC(=O)[C@H](CCCNC(=N)N)NC(=O)[C@H](Cc2ccc(O)cc2)NC(=O)[C@@H]2CSSC[C@H](NC(=O)[C@H](C(C)C)NC(=O)[C@H](CCCNC(=N)N)NC1=O)C(=O)N[C@@H](CCCNC(=N)N)C(=O)N[C@@H](CC(N)=O)C(=O)NCC(=O)N[C@@H](C(C)C)C(=O)N2 [CT4]
Geometric mean (GM) of the peptide MICs (Gram-positive bacteria): 6.35 µM | Geometric mean (GM) of the peptide MICs (Gram-negative bacteria): 0.59 µM

CC[C@H](C)[C@@H]1NC(=O)[C@@H](NC(=O)[C@@H](NC(=O)[C@H](CCCNC(=N)N)NC(=O)[C@@H]2CCCN2C(=O)[C@@H](N)CO)C(C)C)CSSC[C@@H](C(=O)N[C@@H](Cc2c[nH]c3ccccc23)C(=O)NCC(=O)O)NC(=O)[C@H](CCCNC(=N)N)NC(=O)[C@H](CCCNC(=N)N)NC(=O)[C@H](Cc2ccc(O)cc2)NC(=O)[C@@H]2CSSC[C@H](NC(=O)[C@H](C(C)C)NC(=O)[C@H](CCCNC(=N)N)NC1=O)C(=O)N[C@@H](CCCNC(=N)N)C(=O)N[C@@H](CC(N)=O)C(=O)NCC(=O)N[C@@H](C(C)C)C(=O)N2 [Cap, capitellacin]
Geometric mean (GM) of the peptide MICs (Gram-positive bacteria): 8 µM | hemolytic effect after 24 h exposure (human red blood cells; 128 µM, 24 h): 50% | concentration above which toxic effect was observed after 24 h (human red blood cells; 24 h, 32 µM = 64× MIC): above 32 µM | Geometric mean (GM) of the peptide MICs (Gram-negative bacteria): 1 µM

CC(C)[C@@H]1NC(=O)CNC(=O)[C@H](CC(N)=O)NC(=O)[C@H](CCCNC(=N)N)NC(=O)[C@@H]2CSSC[C@H](NC1=O)C(=O)N[C@@H](Cc1ccc(O)cc1)C(=O)N[C@@H](CCCNC(=N)N)C(=O)N[C@@H](CCCNC(=N)N)C(=O)N[C@H](C(=O)N[C@@H](Cc1c[nH]c3ccccc13)C(=O)O)CSSC[C@H](NC(=O)[C@@H](NC(=O)[C@@H](N)CCCNC(=N)N)C(C)C)C(=O)N[C@@H](Cc1ccccc1)C(=O)N[C@@H](CCCNC(=N)N)C(=O)N[C@@H](C(C)C)C(=O)N2 [CT6]
Geometric mean (GM) of the peptide MICs (Gram-positive bacteria): 6.35 µM | Geometric mean (GM) of the peptide MICs (Gram-negative bacteria): 0.55 µM

CC[C@H](C)[C@@H]1NC(=O)[C@@H](NC(=O)[C@@H](NC(=O)[C@H](CCCNC(=N)N)NC(=O)[C@@H]2CCCN2C(=O)[C@@H](N)CO)C(C)C)CSSC[C@@H](C(=O)N[C@@H](Cc2c[nH]c3ccccc23)C(=O)O)NC(=O)[C@H](CCCNC(=N)N)NC(=O)[C@H](CCCNC(=N)N)NC(=O)[C@H](Cc2ccc(O)cc2)NC(=O)[C@@H]2CSSC[C@H](NC(=O)[C@H](C(C)C)NC(=O)[C@H](CCCNC(=N)N)NC1=O)C(=O)N[C@@H](CCCNC(=N)N)C(=O)N[C@@H](CC(N)=O)C(=O)NCC(=O)N[C@@H](C(C)C)C(=O)N2 [CT3]
Geometric mean (GM) of the peptide MICs (Gram-positive bacteria): 10.08 µM | Geometric mean (GM) of the peptide MICs (Gram-negative bacteria): 1.09 µM

CC[C@H](C)[C@@H]1NC(=O)[C@@H](NC(=O)[C@@H](NC(=O)[C@H](CCCNC(=N)N)NC(=O)[C@@H]2CCCN2C(=O)[C@H](CO)NC(=O)[C@@H](N)CCCNC(=N)N)C(C)C)CSSC[C@@H](C(=O)N[C@@H](Cc2c[nH]c3ccccc23)C(=O)NCC(=O)O)NC(=O)[C@H](CCCNC(=N)N)NC(=O)[C@H](CCCNC(=N)N)NC(=O)[C@H](Cc2ccc(O)cc2)NC(=O)[C@@H]2CSSC[C@H](NC(=O)[C@H](C(C)C)NC(=O)[C@H](CCCNC(=N)N)NC1=O)C(=O)N[C@@H](CCCNC(=N)N)C(=O)N[C@@H](CC(N)=O)C(=O)NCC(=O)N[C@@H](C(C)C)C(=O)N2 [CT2]
Geometric mean (GM) of the peptide MICs (Gram-positive bacteria): 3.17 µM | Geometric mean (GM) of the peptide MICs (Gram-negative bacteria): 0.46 µM

arenicin-1
membrane permeabilization after 60 min (E. coli ML-35p [1]): almost full membrane permeabilization
